From US8785452B2, “Anti-infective compounds” (priority 2008, dated 2014)
Converted amounts (≈) assume the structure as drawn. Read-outs that look alike come from different tables or passages of the source.

How the values were obtained:
[1] = system: M. tuberculosis H37Rv-GFP; assay: microbe, parasite or virus in culture; type: cell-based, Mycobacterium tuberculosis; details: for inhibition at 0.2 µM / inhibition at 2 µM / inhibition at 20 µM: Macrophage; for inhibition at 0.2 µM: read-out: QIM Confirm % Inhibition 0.2 uM; for inhibition at 2 µM: read-out: QIM Confirm % Inhibition 2 uM
[2] = system: M. tuberculosis H37Rv-GFP; assay: microbe, parasite or virus in culture; type: cell-based; details: Mycobacterium tuberculosis; for inhibition at 0.2 µM: read-out: QUM Confirm % Inhibition 0.2 uM; for inhibition at 2 µM: read-out: QUM Confirm % Inhibition 2 uM; for inhibition at 20 µM: read-out: QUM Confirm % Inhibition 20 uM
Raw264.7 cells = assay: Cell number (CellNb) from image analysis of the phenotypic cell-based assay
[3] = Mycobacterium tuberculosis, H37RV, confirmation, 0.2 uM, intracellular
[4] = Mycobacterium tuberculosis, H37RV, confirmation, 2 uM, intracellular
[5] = Mycobacterium tuberculosis, H37RV, confirmation, 20 uM, read-out: QIM Confirm % Inhibition 20 uM
[6] = Mycobacterium tuberculosis, H37RV, primary screen, 20 μM, read-out: Primary QIM % Inhibition
[7] = Mycobacterium tuberculosis, H37RV, confirmation, 20 uM, intracellular, read-out: QIM Confirm % Inhibition 20 uM
[8] = Mycobacterium tuberculosis, H37RV, primary screen, 20 μM, intracellular, read-out: Primary QIM % Inhibition
[9] = Mycobacterium tuberculosis, H37RV, read-out: Primary QIM % Inhibition
[10] = Mycobacterium tuberculosis, H37RV
[11] = Mycobacterium tuberculosis, H37RV, read-out: QIM Confirm % Inhibition 20 uM

| SMILES | inhibition at 0.2 µM [1, 3] [%] | inhibition at 2 µM [1, 4] [%] | inhibition at 20 µM [1, 5] [%] | inhibition at 20 µM [1, 6] [%] | inhibition at 0.2 µM [2] [%] | inhibition at 2 µM [2] [%] | inhibition at 20 µM [2] [%] | QIM Confirm CellNb 0.2 uM (Raw264.7 cells; confirmation, 0.2 uM) | QIM Confirm CellNb 2 uM (Raw264.7 cells; confirmation, 2 uM) | QIM Confirm CellNb 20 uM (Raw264.7 cells; confirmation, 20 uM) | Primary QIM CellNb (Raw264.7 cells; primary screen, 20 μM) | inhibition at 20 µM [1, 7] [%] | inhibition at 20 µM [1, 8] [%] | further results |
| --- | --- | --- | --- | --- | --- | --- | --- | --- | --- | --- | --- | --- | --- | --- |
| O=C1c2ccccc2-c2nc3nonc3nc21 [IPK 000 011 19] | 9.7 | 31.6 | 47.6 | 60 | 67.2 | 93.2 | 43.1 | 248.8 | 80.0 | 279.1 | 190.8 | – | – | – |
| [C-]#[N+]c1ccc(Cl)cc1C(C)S(=O)(=O)c1ccc(C)cc1 (stereo not drawn) [IPK 000 126 33] | – | – | – | – | – | – | – | – | 126.8 | – | 123.3 | 73.4 | 80.7 | – |
| O=C(NN=C1CCCCC1)c1ccncc1 [IPK 000 013 72] | 63.2 | 104 | 101 | 82.2 | 57.7 | 73.9 | 98 | 448.5 | 541.6 | 457.3 | 355.5 | – | – | – |
| CCCCOC(=O)C1(O)c2ccccc2-c2ccccc21 [IPK 000 105 56] | – | – | 86.9 | 65.7 | – | – | – | – | – | – | 225.0 | – | – | – |
| O=C1Nc2ccccc2/C1=N/NC(=O)c1ccncc1 [IPK 000 006 35] | 17.7 | 22.8 | 65.2 | 97.6 | 23.7 | 41.9 | 43.4 | 262.8 | 320.9 | 328.8 | 424.3 | – | – | – |
| O=[N+]([O-])c1cc(C(F)(F)F)cc([N+](=O)[O-])c1Sc1nc(-c2ccccc2)c[nH]1 [IPK 000 001 32] | 10.3 | 0.2 | 50.7 | 25.4 | 43.9 | 41.2 | 89.1 | 241.4 | 208.5 | 113.8 | 88.3 | – | – | – |
| Cc1nn(-c2ccccc2)c(Cl)c1/C=N/NC(=O)c1ccccn1 [IPK 000 001 90] | 12.7 | 13.2 | 96.5 | 91.9 | 34.6 | 29.4 | 42.3 | 190.0 | 173.6 | 317.6 | 435.5 | – | – | – |
| CN(C)c1ccc(/N=N/c2ccccc2C(=O)O)cc1 [IPK 000 052 75] | – | – | 10.1 | -77.4 | – | – | – | – | – | – | 48.8 | – | – | – |
| O=C(Nc1ccc(Br)cc1)c1cc([N+](=O)[O-])cc([N+](=O)[O-])c1 [IPK 000 046 92] | – | – | 93.4 | 90.2 | – | – | – | – | – | – | 303.5 | – | – | – |
| CCc1nnc(NS(=O)(=O)c2ccc(N)cc2)s1 [IPK 000 035 58] | 5.1 | 34.4 | 2.8 | -51.3 | 45.1 | 46.4 | 65.3 | 292.3 | 330.0 | 279.9 | 104.0 | – | – | – |
| Clc1ccc(Nc2nc3nonc3nc2Nc2ccc(Cl)cc2)cc1 [IPK 000 003 90] | 2.2 | 43.2 | 67.9 | 15.7 | 44 | 68.8 | 72.7 | 142.3 | 75.6 | 133.4 | 78.0 | – | – | – |
| Fc1ccc(Nc2nc3nonc3nc2Nc2ccc(F)cc2)cc1 [IPK 000 003 91] | 2.9 | 36.8 | 76.4 | 31.6 | 46.6 | 41.4 | 76.7 | 220.9 | 148.9 | 128.8 | 63.0 | – | – | – |
| COc1ccccc1OCCNC(=O)c1cc([N+](=O)[O-])cc([N+](=O)[O-])c1 [IPK 000 027 74] | – | – | – | – | 43.5 | 97.5 | 100 | – | – | – | – | – | – | inhibition at 20 µM [1, 9]: 87.2%; inhibition at 0.2 µM [1, 10]: -2.7%; inhibition at 2 µM [1, 10]: 83.3%; inhibition at 20 µM [1, 11]: 96.9%; Primary QIM CellNb (Raw264.7 cells): 366.0; QIM Confirm CellNb 0.2 uM (Raw264.7 cells): 268.5; QIM Confirm CellNb 2 uM (Raw264.7 cells): 478.8; QIM Confirm CellNb 20 uM (Raw264.7 cells): 435.8 |
| CC(C)(C)C(=O)Nc1ccccc1C(=O)N1CCOCC1 [IPK 000 021 87] | 15.4 | 29.8 | 96.5 | 90.2 | 49.1 | 42.9 | 41.9 | 305.3 | 403.4 | 609.0 | 405.0 | – | – | – |
| O=C(O)c1cn(C2CC2)c2cc(N3CCNCC3)c(F)cc2c1=O [IPK 000 117 14] | – | – | – | – | – | – | – | – | – | – | 546.0 | – | – | inhibition at 20 µM [1, 9]: 69.1%; inhibition at 20 µM [1, 11]: 66.5% |
| CC(C)c1ccc(CNC(=O)c2cc([N+](=O)[O-])cc([N+](=O)[O-])c2)cc1 [IPK 000 027 78] | 33 | 99.3 | 96.3 | 79.6 | 71.7 | 97.5 | 78.2 | 366.0 | 543.5 | 499.4 | 332.0 | – | – | – |
| O=C(Nc1ccc([N+](=O)[O-])cc1)C12CC3CC(CC(C3)C1)C2 [IPK 000 022 33] | 30.3 | 33.5 | 90 | 66 | 35.7 | 45.4 | 74.2 | 315.6 | 472.3 | 517.1 | 372.0 | – | – | – |
| CC(C)(C)c1cc(C(=O)N/N=C2\C(=O)N(Cc3ccccc3)c3ccccc32)[nH]n1 [IPK 000 138 12] | – | – | – | – | – | – | – | – | – | – | 480.8 | 105 | 96.8 | – |
| C=CCN1C(=O)/C(=N/NC(=O)c2ccc(F)cc2)c2ccccc21 [IPK 000 104 67] | – | – | 73.7 | 33.8 | – | – | – | – | – | – | 183.0 | – | – | – |
| c1ccc(COc2ccc(NCCc3ccncc3)cc2)cc1 [IPK 000 016 00] | 3.2 | 19.4 | 37.9 | -19 | 47.1 | 48.6 | 68 | 278.8 | 265.4 | 300.3 | 93.0 | – | – | – |
| O=C([O-])Cc1ccccc1Nc1c(Cl)cccc1Cl.[Na+] [IPK 000 117 05] | – | – | 80.5 | 79.8 | – | – | – | – | – | – | 656.5 | – | – | – |
| CNCCCN1c2ccccc2CCc2ccccc21 [IPK 000 224 59] | – | – | – | – | – | – | – | – | – | – | 60.3 | 86.2 | 72.9 | – |
| Cc1ccn2cc(-c3ccc(F)cc3)nc2c1 [IPK 000 129 91] | – | – | – | – | – | – | – | – | – | – | – | 38.2 | -36 | – |
| NNC(=O)c1ccncc1 [INH, isoniazid, reference compound] | – | – | – | – | – | – | – | – | – | – | – | – | – | minimal inhibitory concentration (MIC) [1]: 0.16 ± 0.05 mg/L (≈ 1.17 µM); MIC ([1]; Mycobacterium tuberculosis, H37RV, 120 h, read-out: minimal inhibitory concentration (MIC)): 0.1 mg/L (≈ 0.729 µM); MIC ([2]; read-out: minimal inhibitory concentration (MIC)): 0.1 mg/L (≈ 0.729 µM) |
| COc1cccc(C(CC(=O)c2ccc(Cl)cc2)C(C#N)C#N)c1 (stereo not drawn) [IPK 000 130 54] | – | – | – | – | – | – | – | – | – | – | – | 65.8 | 66.7 | – |
| CCOC(=O)C1(O)c2ccccc2-c2ccccc21 [IPK 000 105 55] | – | – | 91.5 | 89.3 | – | – | – | – | – | – | 181.3 | – | – | – |
| COc1ccc(-c2csc(-c3cccnc3)n2)cc1 [IPK 000 144 22] | – | – | – | – | – | – | – | – | – | – | – | 30 | -9.8 | – |
| CC(=O)OC(OC(C)=O)c1ccc([N+](=O)[O-])s1 [IPK 000 155 36] | – | – | – | – | – | – | – | – | – | – | – | 74 | 67.8 | – |
| NNC(=O)c1ccc(COc2ccc(Cl)cc2Cl)o1 [IPK 000 140 81] | – | – | – | – | – | – | – | – | – | – | – | 91.8 | 94.6 | – |
| CC1=NN(C(N)=S)C(=O)/C1=N/Nc1ccccc1C [IPK 000 168 32] | – | – | – | – | – | – | – | – | – | – | – | 81.9 | 75.7 | – |
